Laboratory results as given in ChEMBL document CHEMBL1201862, “PubChem BioAssay data set” (2004).
The source made the active and inactive calls.

Key:
[1] = molecular target: DNA repair protein RAD52 homolog (Homo sapiens, UniProt P43351); assay type: functional, biochemical
[2] = molecular target: T1, Voltage-gated N-type calcium channel alpha-1B subunit/Amyloid beta A4 precursor protein-binding family A member 1 (Homo sapiens, UniProt Q00975+Q02410); test: disruptors of Mint-PDZ/N-type channel peptide interaction – biochemical, HTRF, SAR follow-up (AID 2489); assay type: functional
T1 sequence (Q00975 whole entry): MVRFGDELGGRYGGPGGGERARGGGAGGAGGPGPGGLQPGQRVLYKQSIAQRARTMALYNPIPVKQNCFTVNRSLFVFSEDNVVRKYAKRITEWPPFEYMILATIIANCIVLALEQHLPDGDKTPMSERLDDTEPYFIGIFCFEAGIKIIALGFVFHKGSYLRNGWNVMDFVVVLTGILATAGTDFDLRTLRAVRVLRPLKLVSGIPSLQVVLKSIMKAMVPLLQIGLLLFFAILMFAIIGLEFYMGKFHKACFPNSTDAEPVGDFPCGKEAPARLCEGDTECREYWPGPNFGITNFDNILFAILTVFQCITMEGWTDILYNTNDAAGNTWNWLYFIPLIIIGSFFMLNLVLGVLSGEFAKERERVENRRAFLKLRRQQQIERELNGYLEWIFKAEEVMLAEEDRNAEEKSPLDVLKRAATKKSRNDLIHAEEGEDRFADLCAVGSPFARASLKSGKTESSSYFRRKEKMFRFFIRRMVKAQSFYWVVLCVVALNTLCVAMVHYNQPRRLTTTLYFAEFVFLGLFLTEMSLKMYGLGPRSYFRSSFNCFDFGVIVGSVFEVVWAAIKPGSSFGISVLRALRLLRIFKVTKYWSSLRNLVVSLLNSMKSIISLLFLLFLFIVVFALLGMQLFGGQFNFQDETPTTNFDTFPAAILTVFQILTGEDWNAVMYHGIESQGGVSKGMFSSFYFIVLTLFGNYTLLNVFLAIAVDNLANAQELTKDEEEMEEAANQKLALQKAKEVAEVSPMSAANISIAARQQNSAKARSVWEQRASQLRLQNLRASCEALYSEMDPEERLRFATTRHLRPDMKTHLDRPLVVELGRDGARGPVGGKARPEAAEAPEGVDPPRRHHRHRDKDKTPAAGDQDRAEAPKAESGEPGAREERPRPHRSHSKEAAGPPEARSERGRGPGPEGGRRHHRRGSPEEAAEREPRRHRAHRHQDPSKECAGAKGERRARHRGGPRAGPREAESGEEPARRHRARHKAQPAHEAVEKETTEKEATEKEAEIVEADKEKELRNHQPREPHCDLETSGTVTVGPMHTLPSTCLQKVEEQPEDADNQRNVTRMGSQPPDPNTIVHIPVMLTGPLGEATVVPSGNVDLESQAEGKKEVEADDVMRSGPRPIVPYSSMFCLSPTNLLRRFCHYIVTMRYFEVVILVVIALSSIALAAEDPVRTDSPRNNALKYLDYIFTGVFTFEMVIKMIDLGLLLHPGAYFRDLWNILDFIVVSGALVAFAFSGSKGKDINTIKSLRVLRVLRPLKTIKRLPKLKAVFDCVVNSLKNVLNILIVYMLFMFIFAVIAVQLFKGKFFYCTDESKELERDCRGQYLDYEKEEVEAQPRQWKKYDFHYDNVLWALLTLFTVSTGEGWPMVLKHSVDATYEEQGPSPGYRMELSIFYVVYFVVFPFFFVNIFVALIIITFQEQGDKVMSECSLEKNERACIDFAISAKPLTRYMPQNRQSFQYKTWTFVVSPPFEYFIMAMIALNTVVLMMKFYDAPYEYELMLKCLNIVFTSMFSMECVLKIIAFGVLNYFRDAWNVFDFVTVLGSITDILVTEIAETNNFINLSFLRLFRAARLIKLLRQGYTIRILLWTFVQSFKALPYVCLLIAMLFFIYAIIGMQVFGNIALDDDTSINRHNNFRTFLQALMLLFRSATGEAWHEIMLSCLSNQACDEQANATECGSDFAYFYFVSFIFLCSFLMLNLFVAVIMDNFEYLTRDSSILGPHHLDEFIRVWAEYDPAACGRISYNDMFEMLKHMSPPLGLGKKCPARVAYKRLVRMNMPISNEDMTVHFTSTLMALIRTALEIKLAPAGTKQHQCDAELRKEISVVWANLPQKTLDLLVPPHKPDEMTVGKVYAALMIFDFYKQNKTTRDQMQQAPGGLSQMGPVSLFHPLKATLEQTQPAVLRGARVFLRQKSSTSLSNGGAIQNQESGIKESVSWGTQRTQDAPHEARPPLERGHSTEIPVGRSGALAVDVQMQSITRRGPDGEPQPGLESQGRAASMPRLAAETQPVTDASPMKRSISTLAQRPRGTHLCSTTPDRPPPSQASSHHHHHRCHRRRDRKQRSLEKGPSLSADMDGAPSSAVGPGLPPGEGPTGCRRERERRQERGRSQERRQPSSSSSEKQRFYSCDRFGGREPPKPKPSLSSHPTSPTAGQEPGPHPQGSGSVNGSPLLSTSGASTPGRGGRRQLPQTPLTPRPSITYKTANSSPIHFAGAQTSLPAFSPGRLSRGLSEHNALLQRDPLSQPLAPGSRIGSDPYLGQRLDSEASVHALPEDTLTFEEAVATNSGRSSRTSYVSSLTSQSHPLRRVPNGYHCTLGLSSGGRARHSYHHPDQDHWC
T1 sequence (Q02410 whole entry): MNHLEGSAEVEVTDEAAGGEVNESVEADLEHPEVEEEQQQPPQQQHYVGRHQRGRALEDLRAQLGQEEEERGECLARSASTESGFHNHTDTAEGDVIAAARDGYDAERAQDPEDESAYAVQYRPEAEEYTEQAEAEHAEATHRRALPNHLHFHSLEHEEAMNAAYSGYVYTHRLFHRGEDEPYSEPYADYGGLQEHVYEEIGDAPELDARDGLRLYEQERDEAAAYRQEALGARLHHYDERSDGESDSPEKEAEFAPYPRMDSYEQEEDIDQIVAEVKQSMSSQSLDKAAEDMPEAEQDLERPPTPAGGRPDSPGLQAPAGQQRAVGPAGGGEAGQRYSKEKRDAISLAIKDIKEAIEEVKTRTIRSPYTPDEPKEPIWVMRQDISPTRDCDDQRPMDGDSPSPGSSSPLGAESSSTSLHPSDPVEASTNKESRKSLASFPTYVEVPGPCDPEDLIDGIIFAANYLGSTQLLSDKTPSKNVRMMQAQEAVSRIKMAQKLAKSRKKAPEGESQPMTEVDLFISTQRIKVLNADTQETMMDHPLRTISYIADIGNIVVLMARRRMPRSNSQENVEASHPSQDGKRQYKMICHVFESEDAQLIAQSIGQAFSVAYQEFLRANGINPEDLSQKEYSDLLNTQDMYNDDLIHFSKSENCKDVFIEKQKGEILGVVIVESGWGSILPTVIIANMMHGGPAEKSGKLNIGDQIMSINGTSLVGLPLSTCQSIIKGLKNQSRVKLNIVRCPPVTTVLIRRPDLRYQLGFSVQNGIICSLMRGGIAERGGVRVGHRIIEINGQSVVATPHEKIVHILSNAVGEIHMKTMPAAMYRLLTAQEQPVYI

SUMO E1/E2 = SUMO E1/E2 (Homo sapiens, UniProt P63279+Q9UBE0+Q9UBT2); test: SAR analysis of SUMOylation using HTRF in an in-Vitro dose response assay. [Related pubchem assays (depositor defined):AID2006, AID2011, AID2018, AID2069, AID2658]; assay type: functional
[3] = molecular target: T1, Voltage-gated N-type calcium channel alpha-1B subunit/Amyloid beta A4 precursor protein-binding family A member 1; test: disruptors of Mint-PDZ/N-type channel peptide interaction – biochemical, HTRF, set 2, SAR follow-up (AID 434980); assay type: functional
Escherichia coli [4] = test: microbe, parasite or virus in culture
[5] = molecular target: T2, Heat shock factor protein 1 (Mus musculus, UniProt P38532); test: decrease of HSF1-responsive luciferase luminescence – cell-based, NIH3T3, dose retest, confirmation (AID 2382); assay type: functional;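 note: NIH3T3 fibroblasts with HSF1-driven luciferase reporter stressed by proteasome inhibitor MG132; luminescence from HSF1-driven luciferase expression after 8 hours of MG132 stress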
T2 sequence (P38532 whole entry): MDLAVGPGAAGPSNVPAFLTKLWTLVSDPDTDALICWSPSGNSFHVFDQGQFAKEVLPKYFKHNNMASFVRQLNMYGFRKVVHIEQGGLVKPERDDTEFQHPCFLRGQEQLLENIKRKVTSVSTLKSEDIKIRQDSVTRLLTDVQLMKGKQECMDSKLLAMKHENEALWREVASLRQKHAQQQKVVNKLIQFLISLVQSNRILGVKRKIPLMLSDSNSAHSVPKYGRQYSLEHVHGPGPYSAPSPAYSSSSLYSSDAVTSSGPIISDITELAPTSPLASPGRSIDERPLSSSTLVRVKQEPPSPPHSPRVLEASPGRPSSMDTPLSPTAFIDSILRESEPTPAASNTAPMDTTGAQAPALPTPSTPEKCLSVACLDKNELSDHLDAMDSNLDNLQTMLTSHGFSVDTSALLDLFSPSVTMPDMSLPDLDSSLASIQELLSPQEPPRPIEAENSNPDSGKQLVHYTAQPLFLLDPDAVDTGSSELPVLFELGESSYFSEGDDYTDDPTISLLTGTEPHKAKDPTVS

Caspase-3 = molecular target: T3, Caspase-3 (Homo sapiens, UniProt P42574); test: SAR Analysis of small molecule inhibitors of Sentrin-specific proteases (SENPs) using a Caspase-3 Selectivity assay. [Related pubchem assays (depositor defined):AID2540, AID2599, AID434973, AID489001]; assay type: functional
T3 sequence (P42574 whole entry): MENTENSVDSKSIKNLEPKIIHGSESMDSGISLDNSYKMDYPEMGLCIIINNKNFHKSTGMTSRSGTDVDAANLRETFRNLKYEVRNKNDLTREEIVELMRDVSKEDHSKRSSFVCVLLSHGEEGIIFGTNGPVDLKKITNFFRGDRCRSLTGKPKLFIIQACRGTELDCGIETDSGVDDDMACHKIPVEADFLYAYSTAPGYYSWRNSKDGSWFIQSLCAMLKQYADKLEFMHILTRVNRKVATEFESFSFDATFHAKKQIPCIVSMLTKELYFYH

[6] = molecular target: T4, Sentrin-specific protease 8 (Homo sapiens, UniProt Q96LD8); test: inhibition of human SENP8 cleavage activity – biochemical, luminescence, SAR follow-up (AID 504501); assay type: functional
T4 sequence (Q96LD8 whole entry): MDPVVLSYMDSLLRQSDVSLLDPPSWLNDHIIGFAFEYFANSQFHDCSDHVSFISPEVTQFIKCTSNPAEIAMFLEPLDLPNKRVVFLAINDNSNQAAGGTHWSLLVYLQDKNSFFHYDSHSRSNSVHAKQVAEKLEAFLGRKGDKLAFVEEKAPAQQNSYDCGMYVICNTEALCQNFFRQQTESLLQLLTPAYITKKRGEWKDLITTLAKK

[7] = molecular target: T5, Sentrin-specific protease 7 (Homo sapiens, UniProt Q9BQF6); test: inhibition of human SENP7 cleavage activity – biochemical, luminescence, SAR follow-up (AID 504497); assay type: functional
T5 sequence (Q9BQF6 whole entry): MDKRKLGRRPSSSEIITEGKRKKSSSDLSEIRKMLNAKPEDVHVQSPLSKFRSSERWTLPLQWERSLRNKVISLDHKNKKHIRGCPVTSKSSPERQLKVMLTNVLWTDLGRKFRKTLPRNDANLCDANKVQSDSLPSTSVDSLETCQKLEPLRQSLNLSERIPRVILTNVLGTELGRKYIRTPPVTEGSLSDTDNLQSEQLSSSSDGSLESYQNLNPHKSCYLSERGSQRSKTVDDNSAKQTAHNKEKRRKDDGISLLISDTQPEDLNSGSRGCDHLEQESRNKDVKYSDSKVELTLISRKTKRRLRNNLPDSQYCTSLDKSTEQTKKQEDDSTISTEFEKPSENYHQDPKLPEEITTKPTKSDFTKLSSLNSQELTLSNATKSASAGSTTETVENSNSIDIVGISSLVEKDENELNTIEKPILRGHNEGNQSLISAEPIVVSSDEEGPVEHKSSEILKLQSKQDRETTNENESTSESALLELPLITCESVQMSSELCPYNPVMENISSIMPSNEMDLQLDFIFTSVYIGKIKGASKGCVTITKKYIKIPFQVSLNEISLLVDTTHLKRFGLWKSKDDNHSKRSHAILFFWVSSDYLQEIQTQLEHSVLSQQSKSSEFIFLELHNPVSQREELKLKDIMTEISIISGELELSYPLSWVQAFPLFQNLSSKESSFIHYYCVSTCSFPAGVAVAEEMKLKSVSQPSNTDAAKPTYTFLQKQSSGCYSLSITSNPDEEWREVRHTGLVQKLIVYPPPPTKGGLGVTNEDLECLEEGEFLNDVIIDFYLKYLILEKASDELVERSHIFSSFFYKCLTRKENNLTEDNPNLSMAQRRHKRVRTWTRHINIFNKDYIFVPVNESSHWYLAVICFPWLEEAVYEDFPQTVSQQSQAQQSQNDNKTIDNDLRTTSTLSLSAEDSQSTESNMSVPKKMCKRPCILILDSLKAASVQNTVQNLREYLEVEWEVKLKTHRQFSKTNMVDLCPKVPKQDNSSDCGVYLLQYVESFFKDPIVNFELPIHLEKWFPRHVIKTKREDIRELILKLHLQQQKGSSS

[8] = molecular target: T6, Sentrin-specific protease 6 (Homo sapiens, UniProt Q9GZR1); test: SAR Analysis of small molecule inhibitors of Sentrin-specific protease 6 (SENP6) using a Luminescent assay. [Related pubchem assays (depositor defined):AID2582, AID2599]; assay type: functional
T6 sequence (Q9GZR1 whole entry): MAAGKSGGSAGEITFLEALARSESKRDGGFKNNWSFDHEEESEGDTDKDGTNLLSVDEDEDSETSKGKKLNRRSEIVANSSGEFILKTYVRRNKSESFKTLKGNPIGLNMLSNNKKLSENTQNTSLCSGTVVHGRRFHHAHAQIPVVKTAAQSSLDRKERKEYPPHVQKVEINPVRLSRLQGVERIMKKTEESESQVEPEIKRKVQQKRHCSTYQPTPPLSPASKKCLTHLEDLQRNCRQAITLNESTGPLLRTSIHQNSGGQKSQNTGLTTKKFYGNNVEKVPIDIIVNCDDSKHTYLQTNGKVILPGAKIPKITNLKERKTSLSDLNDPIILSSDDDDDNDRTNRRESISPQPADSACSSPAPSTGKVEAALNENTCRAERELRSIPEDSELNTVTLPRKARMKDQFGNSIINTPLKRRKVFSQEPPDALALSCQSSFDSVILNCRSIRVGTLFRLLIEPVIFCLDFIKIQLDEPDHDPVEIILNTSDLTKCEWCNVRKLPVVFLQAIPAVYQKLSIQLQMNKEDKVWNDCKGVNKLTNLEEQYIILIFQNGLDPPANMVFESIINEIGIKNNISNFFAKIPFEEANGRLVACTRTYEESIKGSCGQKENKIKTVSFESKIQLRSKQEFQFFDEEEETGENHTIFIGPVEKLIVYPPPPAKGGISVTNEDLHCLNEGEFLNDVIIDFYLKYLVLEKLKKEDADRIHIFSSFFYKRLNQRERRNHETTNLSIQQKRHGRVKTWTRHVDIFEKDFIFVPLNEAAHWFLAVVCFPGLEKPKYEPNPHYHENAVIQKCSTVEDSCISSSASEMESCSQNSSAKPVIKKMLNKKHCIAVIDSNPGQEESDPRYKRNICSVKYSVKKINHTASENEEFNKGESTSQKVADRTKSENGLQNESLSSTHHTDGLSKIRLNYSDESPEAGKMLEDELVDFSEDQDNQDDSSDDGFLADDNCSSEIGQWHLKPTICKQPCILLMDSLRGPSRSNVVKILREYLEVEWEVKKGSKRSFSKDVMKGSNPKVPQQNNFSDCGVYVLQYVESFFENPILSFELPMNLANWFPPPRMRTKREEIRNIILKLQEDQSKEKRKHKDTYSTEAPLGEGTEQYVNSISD

HEK293 [9] = test: HEK293T cell viability loss, resazurin readout – resazurin fluorescence, cytotoxicity control for NF-kB activator project, SAR follow-up (AID 493251); assay type: functional, cell-based; settings: Homo sapiens
Jurkat = test: SAR Analysis of small molecule inhibitors of […] specific antigen receptor-induced NF-kB activation in a Jurkat cell line using a luminescence assay - Set 3. [Related pubchem assays (depositor defined):AID435022, AID435025, AID465]; assay type: functional, cell-based; settings: Homo sapiens
HEK293 [10] = test: SAR Analysis of small molecule inhibitors of B-cell specific antigen receptor-induced NF-kB activation in a HEK-293T cell line using a luminescence assay - Set 2. [Related pubchem assays (depositor defined):AID435022, AID435025, AID489021]; assay type: functional, cell-based; settings: Homo sapiens
A-375 [11] = test: proliferation inhibition in MITF-low A375 cells – cell-based, cherry-pick samples, set 2, counter-screen for MITF modulator project, dose response (AID 540335); assay type: functional; settings: Homo sapiens
A-375 [12] = test: MITF: Counter assay: A375 proliferation Measured in Cell-Based System Using Plate Reader - 2084-03_Inhibitor_Dose_DryPowder_Activity. [Related pubchem assays (depositor defined):AID488944]; assay type: functional; settings: Homo sapiens
Phospholipase D1 = Phospholipase D1 (Homo sapiens, UniProt Q13393); test: cellular phospholipase D1 inhibition IC50 – cell-based, dose response (AID 602151); assay type: functional;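 note: cellular PLD1 assay in Calu-1 cells stimulated with PMA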
Phospholipase D2 = Phospholipase D2 (Homo sapiens, UniProt O14939); test: cellular phospholipase D2 inhibition IC50 – cell-based, dose response (AID 602147); assay type: functional;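 note: cellular assay in HEK293 cells overexpressing GFP-tagged PLD2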
Chain of Phospholipase D2 (O14939 whole entry): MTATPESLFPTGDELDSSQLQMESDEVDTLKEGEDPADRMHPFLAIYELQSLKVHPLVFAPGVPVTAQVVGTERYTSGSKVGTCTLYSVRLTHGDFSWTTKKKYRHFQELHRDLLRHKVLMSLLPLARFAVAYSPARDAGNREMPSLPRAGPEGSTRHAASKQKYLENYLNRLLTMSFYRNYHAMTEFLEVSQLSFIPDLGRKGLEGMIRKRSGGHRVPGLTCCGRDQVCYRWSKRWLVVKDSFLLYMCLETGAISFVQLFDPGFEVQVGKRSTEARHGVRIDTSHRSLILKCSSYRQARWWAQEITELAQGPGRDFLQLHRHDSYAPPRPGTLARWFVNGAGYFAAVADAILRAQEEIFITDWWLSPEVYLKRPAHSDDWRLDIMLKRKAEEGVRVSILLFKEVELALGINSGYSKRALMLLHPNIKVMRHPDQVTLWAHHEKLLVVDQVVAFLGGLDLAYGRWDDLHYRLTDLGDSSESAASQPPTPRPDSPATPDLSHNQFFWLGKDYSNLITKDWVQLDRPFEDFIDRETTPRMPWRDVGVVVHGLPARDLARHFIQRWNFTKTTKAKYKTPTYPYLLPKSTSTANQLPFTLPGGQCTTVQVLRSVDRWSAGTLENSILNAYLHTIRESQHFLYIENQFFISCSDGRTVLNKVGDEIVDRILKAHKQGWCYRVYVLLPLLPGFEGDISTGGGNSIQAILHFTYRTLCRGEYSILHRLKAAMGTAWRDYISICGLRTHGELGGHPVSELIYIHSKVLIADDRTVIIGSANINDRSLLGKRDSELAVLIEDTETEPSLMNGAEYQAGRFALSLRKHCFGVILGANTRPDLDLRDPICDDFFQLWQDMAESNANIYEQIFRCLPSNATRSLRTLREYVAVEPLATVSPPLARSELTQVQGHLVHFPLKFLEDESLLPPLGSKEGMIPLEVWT

Escherichia coli [13] = test: microbe, parasite or virus in culture; remark: listed apart in the source

Chain of DNA repair protein RAD52 homolog (P43351 whole entry): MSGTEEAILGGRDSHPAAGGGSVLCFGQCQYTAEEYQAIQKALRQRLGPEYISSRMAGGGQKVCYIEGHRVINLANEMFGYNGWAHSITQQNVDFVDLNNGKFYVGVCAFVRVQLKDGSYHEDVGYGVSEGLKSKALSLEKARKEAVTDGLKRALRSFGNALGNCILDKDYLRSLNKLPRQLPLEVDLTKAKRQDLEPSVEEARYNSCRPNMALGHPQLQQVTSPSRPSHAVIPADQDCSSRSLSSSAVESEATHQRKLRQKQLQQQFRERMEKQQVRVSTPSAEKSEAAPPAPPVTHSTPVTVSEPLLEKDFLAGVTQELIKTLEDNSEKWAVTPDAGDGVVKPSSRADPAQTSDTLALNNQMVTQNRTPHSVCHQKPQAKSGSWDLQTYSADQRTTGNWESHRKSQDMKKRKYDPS

CCN(CC)CCNC(=O)c1cc(-c2ccco2)nc2ccccc12
AC50 [1]: 11.7 µM (active) | IC50 [2]: 5.19 µM (active) | IC50 (SUMO E1/E2): 2.01 µM (active) | IC50 [3]: 6 µM (active)

CCN1CCN(CCCNc2[nH]cnc3ncnc2-3)CC1
AC50 (Escherichia coli [4]): 74.1 µM (active) | EC50 [5]: > 195 µM (not active)

COc1ccccc1CC(=O)Nc1ccc(-c2noc(/C=C/c3ccccc3)n2)cc1
IC50 (Caspase-3): > 99 µM (inactive) | IC50 [6]: > 99 µM (inactive) | IC50 [7]: > 99 µM (inactive) | IC50 [8]: > 99 µM (inactive)

CC(C)CNC(=O)CCc1nc(-c2ccc(C(C)(C)C)cc2)no1
IC50 (HEK293 [9]): > 80 µM (inactive) | IC50 (Jurkat): 2.97 µM (active) | IC50 (HEK293 [10]): 1.51 µM (active)

CCOc1ccc(N(CC(=O)Nc2ccc(OC)cc2)S(C)(=O)=O)cc1
AC50 (A-375 [11]): > 35 µM (active) | AC50 (A-375 [12]): > 35 µM (active)

O=C(NCCN1CCC2(CC1)C(=O)NCN2c1ccc(Cl)cc1)c1ccc(Cl)cc1
IC50 (Phospholipase D1): 3.59 µM (active) | IC50 (Phospholipase D2): 0.635 µM (active)

CCOc1ccc(-c2nc(CSCC(=O)NCCc3ccccc3)c(C)o2)cc1
IC50 (HEK293 [9]): 35.6 µM (inactive) | IC50 (Jurkat): 55 µM (inactive) | IC50 (HEK293 [10]): 22.9 µM (inactive)

C[C@@H](CN1CCC(n2c(=O)[nH]c3ccccc32)CC1)NC(=O)c1ccco1
IC50 (Phospholipase D1): 0.19 µM (active) | IC50 (Phospholipase D2): 7.9 µM (active)

Cc1ccc(C2CC2/C(=N/O)c2ccc(F)cc2)cc1 (centres undefined)
AC50 (Escherichia coli [13]): 25.9 µM (active) | AC50 (Escherichia coli [4]): 53.3 µM (active)
